# Data: patent publication US10358434B2, “2-(3-pyridinyl)-1H-benzimidazole derivative compound and medicament containing same” (NIHON MEDI-PHYSICS CO., LTD., priority 2014, dated 2019)
# Tests used:
# [1] = Plasma stability evaluation (TLC analysis); assay type: in vitro ADME; conditions: 37° C., 60 minutes
# Description: Evaluation was made using a heparin-treated normal human plasma pool (Kohjin Bio Co., Ltd.). Compounds [^18F] 100, [^18F] 200, [^123I] 400, [^18F] 500, and [^123I] 601 to 610 obtained by the methods shown in Examples 2, 4, 7, 9, 11, 13, 15, 17, 19, 21, 23, 25, 27, and 29 were each added to the aforementioned human plasma (5 mL), and the obtained mixture was then incubated at 37° C. for 60 minutes. Thereafter, the mixture was centrifuged with addition of methanol, so that a deproteinization treatment was carried out. Thereafter, stability was evaluated by TLC analysis. As TLC analysis conditions, the TLC analysis conditions applied upon the above described synthesis of each compound were applied.
# [2] = In vivo kinetics experiment (radioactivity distribution); set-up: species or system Wistar male rat; conditions: rat; for Adrenal gland/blood ratio of radioactivity accumulation / Adrenal gland/fat ratio of radioactivity accumulation / Adrenal gland/kidney ratio of radioactivity accumulation / Adrenal gland/liver ratio of radioactivity accumulation / Adrenal gland/muscle ratio of radioactivity accumulation / Adrenal gland/small intestine ratio of radioactivity accumulation / Radioactivity distribution Adrenal gland / Radioactivity distribution Bladder (including urine) / Radioactivity distribution Blood / Radioactivity distribution Fat / Radioactivity distribution Femur / Radioactivity distribution Heart / Radioactivity distribution Kidney / Radioactivity distribution Large intestine / Radioactivity distribution Liver / Radioactivity distribution Lung / Radioactivity distribution Muscle (lower limbs) / Radioactivity distribution Remaining whole body / Radioactivity distribution Small intestine / Radioactivity distribution Spleen / Radioactivity distribution Stomach / Radioactivity distribution Testis / Radioactivity distribution Whole brain: caudal vein
# Description: Each of Compounds [^18F] 100, [^18F] 200, [^123I] 400, [^18F] 500, and [^123I] 601 to 610 obtained by the methods described in Examples 2, 4, 7, 9, 11, 13, 15, 17, 19, 21, 23, 25, 27, and 29, or [^123I] IMTO, was diluted with a physiological saline containing 1 w/v % ascorbic acid to prepare a solution to be administered. The above described compound (approximately 1 to 3.7 MBq) was injected into the caudal vein of a Wistar male rat (9 weeks old) under anesthesia with a mixed gas of isoflurane/air, and ten minutes after the injection, the rat was sacrificed by exsanguination. From the thus sacrificed rat, blood and organs (heart, lung, stomach, liver, spleen, small intestine, large intestine, kidney, bladder (including urine), muscle (lower limbs), brain, adrenal gland, testis, fat, femur, or thyroid gland) were excised, and the weights thereof were then measured. Thereafter, radioactivity was measured in the blood, the individual excised organs, and the remaining whole body. Further, 30 and 60 minutes after the administration, the same operations as those described above were carried out. […] The symbol “n” in Tables 9 to 23 indicates the number of rats used. In addition, Tables 9 to 23 also show the ratio of radioactivity accumulation in adrenal grand (% ID/g) to radioactivity accumulation in each of blood, liver, kidney, small intestine, muscle and fat (% ID/g).
# [3] = tested on: human adrenal gland section expressing aldosterone-producing adenoma; test: In vitro autoradiography using human adrenal adenoma; assay type: binding
# Source text: From adrenal gland excised from a human patient for treatment of primary aldosteronism, a portion containing aldosterone-producing adenoma was removed and was then frozen. The frozen adrenal gland was embedded in an embedding agent for production of a frozen tissue section (Tissue-Tek O.C.T. Compound, Sakura Finetek Japan). Using a freezing microtome (CM3050S, Leica Microsystems), a 7-μm thin slice section, which is schematically shown in FIGS. 17(a) and 17(b), was produced, and was preserved at −20° C. before use. In FIGS. 17, 71a and 71b indicate aldosterone-producing adenomas, 72a and 72b indicate normal adrenal cortexes, and 73a and 73b indicate normal adrenal medullas. A 5-33 kBq/mL solution was prepared by adding a suitable amount of each of Compounds [^18F] 100, [^18F] 200, [^123I] 400, [^18F] 500, and [^123I] 601 to [^123I] 610, which were obtained by the methods described in Examples 2, 4, 7, 9, 11, 13, 15, 17, 19, 21, 23, 25, 27, and 29, or [^123I] IMTO to a phosphate-buffered physiological saline containing 1 w/v % bovine serum albumin (not containing fatty acid). The radioactivity concentration was measured using an autowell gamma system (ARC-7001, manufactured by Hitachi Aloka Medical, Ltd.). The section was immersed in the obtained sample solution for 10 minutes. For Compounds [^18F] 100, [^18F] 200, [^123I] 400, [^18F] 500, [^123I] 601 and [^123I] 602, the section shown in FIG. 17(a) was used, and for Compounds […] [^123I] IMTO, both sections shown in FIGS. 17(a) and (b) were used. Each sample solution was washed off, and the section was then exposed to an imaging plate (BAS-SR2040, manufactured by FUJIFILM Holdings Corporation) (IP) for 16-20 hours, and thereafter, an autoradiogram was obtained using a fluoro-image analyzer (FLA-7000, manufactured by FUJIFILM Holdings Corporation).
# In order to quantitatively compare differences between images caused by ^123I and ^18F nuclides, a correction was made by calculating accumulation of radioactivity within the range of a region of interest (ROI) by means of integral calculation based on half-life, added radioactivity and IP contact time.
# 610. FIG. 18(b), FIG. 19(b), FIG. 20(b), FIG. 21(b), FIG. 22(a), FIG. 23(a), FIG. 24(a), FIG. 25(a), FIG. 26(a), FIG. 27(a), FIG. 28(a), FIG. 29(a), FIG. 30(a), and FIG. 31(a) each show an autoradiogram of [^123I] IMTO. […] 100, [^18F] 200, [^123I] 400, [^18F] 500, and [^123I] 601 to [^123I] […] The ROI having the same area as each other was established in a normal site and in a site in which aldosterone-producing adenoma had developed. Then, the PSL value (B1) indicating accumulation of radioactivity in the sites of normal adrenal cortexes 72a and 72b was compared with the PSL value (B2) indicating accumulation of radioactivity in the sites of aldosterone-producing adenomas 71a and 71b. In Table 7, the B1, B2 and B2/B1 values of [^18F] 100 indicate the mean values for the number of tests (n), respectively.
smiles,measurement,setting,value
"Fc1cc2nc(-c3cncc(Cn4ccnc4)c3)n(CC[18F])c2cc1Cl [[^18F] 100, 6-Chloro-5-fluoro-1-(2-[^18F]fluoroethyl)-2-[5-(imidazol-1-ylmethyl)pyridin-3-yl]benzimidazole]",stability in human plasma,[1],hardly metabolized and decomposed in the plasma
same,Radiochemical purity after incubation in human plasma,[1]; TLC analysis,97%
same,accumulation of radioactivity in adrenal gland vs blood and peripheral tissues,[2]; Tables 9 to 22,"high accumulation of radioactivity in adrenal gland was observed, in comparison to in blood and peripheral tissues"
same,Adrenal gland/blood ratio of radioactivity accumulation,[2]; 10 min after administration,137.96 ± 52.72
same,Adrenal gland/fat ratio of radioactivity accumulation,[2]; 10 min after administration,141.33 ± 57.27
same,Adrenal gland/kidney ratio of radioactivity accumulation,[2]; 10 min after administration,6.14 ± 2.01
same,Adrenal gland/liver ratio of radioactivity accumulation,[2]; 10 min after administration,1.93 ± 0.69
same,Adrenal gland/muscle ratio of radioactivity accumulation,[2]; 10 min after administration,63.25 ± 34.56
same,Adrenal gland/small intestine ratio of radioactivity accumulation,[2]; 10 min after administration,9.89 ± 2.73
same,Radioactivity distribution Adrenal gland,[2]; 10 min after administration,10.19 ± 3.35 % ID/g
same,Radioactivity distribution Bladder (including urine),[2]; 10 min after administration,0.22 ± 0.08 % ID/g
same,Radioactivity distribution Blood,[2]; 10 min after administration,0.08 ± 0.01 % ID/g
same,Radioactivity distribution Fat,[2]; 10 min after administration,0.08 ± 0.02 % ID/g
same,Radioactivity distribution Femur,[2]; 10 min after administration,0.63 ± 0.08 % ID/g
same,Radioactivity distribution Heart,[2]; 10 min after administration,0.32 ± 0.08 % ID/g
same,Radioactivity distribution Kidney,[2]; 10 min after administration,1.70 ± 0.40 % ID/g
same,Radioactivity distribution Large intestine,[2]; 10 min after administration,0.15 ± 0.02 % ID/g
same,Radioactivity distribution Liver,[2]; 10 min after administration,5.39 ± 0.99 % ID/g
same,Radioactivity distribution Lung,[2]; 10 min after administration,0.63 ± 0.08 % ID/g
same,Radioactivity distribution Muscle (lower limbs),[2]; 10 min after administration,0.23 ± 0.24 % ID/g
same,Radioactivity distribution Remaining whole body,[2]; 10 min after administration,0.22 ± 0.03 % ID/g
same,Radioactivity distribution Small intestine,[2]; 10 min after administration,1.03 ± 0.14 % ID/g
same,Radioactivity distribution Spleen,[2]; 10 min after administration,3.85 ± 0.65 % ID/g
same,Radioactivity distribution Stomach,[2]; 10 min after administration,0.56 ± 0.17 % ID/g
same,Radioactivity distribution Testis,[2]; 10 min after administration,0.05 ± 0.01 % ID/g
same,Radioactivity distribution Whole brain,[2]; 10 min after administration,0.01 ± 0.00 % ID/g
same,Adrenal gland/blood ratio of radioactivity accumulation,[2]; 30 min after administration,249.08 ± 51.81
same,Adrenal gland/fat ratio of radioactivity accumulation,[2]; 30 min after administration,352.33 ± 208.06
same,Adrenal gland/kidney ratio of radioactivity accumulation,[2]; 30 min after administration,18.18 ± 4.58
same,Adrenal gland/liver ratio of radioactivity accumulation,[2]; 30 min after administration,3.58 ± 0.82
same,Adrenal gland/muscle ratio of radioactivity accumulation,[2]; 30 min after administration,179.35 ± 63.77
same,Adrenal gland/small intestine ratio of radioactivity accumulation,[2]; 30 min after administration,11.12 ± 2.64
same,Radioactivity distribution Adrenal gland,[2]; 30 min after administration,19.61 ± 4.29 % ID/g
same,Radioactivity distribution Bladder (including urine),[2]; 30 min after administration,1.17 ± 0.77 % ID/g
same,Radioactivity distribution Blood,[2]; 30 min after administration,0.08 ± 0.01 % ID/g
same,Radioactivity distribution Fat,[2]; 30 min after administration,0.07 ± 0.02 % ID/g
same,Radioactivity distribution Femur,[2]; 30 min after administration,0.71 ± 0.18 % ID/g
same,Radioactivity distribution Heart,[2]; 30 min after administration,0.27 ± 0.06 % ID/g
same,Radioactivity distribution Kidney,[2]; 30 min after administration,1.10 ± 0.16 % ID/g
same,Radioactivity distribution Large intestine,[2]; 30 min after administration,0.20 ± 0.02 % ID/g
same,Radioactivity distribution Liver,[2]; 30 min after administration,5.55 ± 0.80 % ID/g
same,Radioactivity distribution Lung,[2]; 30 min after administration,0.43 ± 0.07 % ID/g
same,Radioactivity distribution Muscle (lower limbs),[2]; 30 min after administration,0.12 ± 0.03 % ID/g
same,Radioactivity distribution Remaining whole body,[2]; 30 min after administration,0.18 ± 0.03 % ID/g
same,Radioactivity distribution Small intestine,[2]; 30 min after administration,1.78 ± 0.21 % ID/g
same,Radioactivity distribution Spleen,[2]; 30 min after administration,4.57 ± 1.32 % ID/g
same,Radioactivity distribution Stomach,[2]; 30 min after administration,0.73 ± 0.11 % ID/g
same,Radioactivity distribution Testis,[2]; 30 min after administration,0.06 ± 0.01 % ID/g
same,Radioactivity distribution Whole brain,[2]; 30 min after administration,0.01 ± 0.00 % ID/g
same,Adrenal gland/blood ratio of radioactivity accumulation,[2]; 60 min after administration,247.32 ± 64.42
same,Adrenal gland/fat ratio of radioactivity accumulation,[2]; 60 min after administration,397.01 ± 160.35
same,Adrenal gland/kidney ratio of radioactivity accumulation,[2]; 60 min after administration,18.96 ± 4.83
same,Adrenal gland/liver ratio of radioactivity accumulation,[2]; 60 min after administration,5.20 ± 1.19
same,Adrenal gland/muscle ratio of radioactivity accumulation,[2]; 60 min after administration,236.89 ± 62.76
same,Adrenal gland/small intestine ratio of radioactivity accumulation,[2]; 60 min after administration,7.66 ± 2.34
same,Radioactivity distribution Adrenal gland,[2]; 60 min after administration,21.34 ± 5.24 % ID/g
same,Radioactivity distribution Bladder (including urine),[2]; 60 min after administration,2.41 ± 0.97 % ID/g
same,Radioactivity distribution Blood,[2]; 60 min after administration,0.09 ± 0.01 % ID/g
same,Radioactivity distribution Fat,[2]; 60 min after administration,0.06 ± 0.03 % ID/g
same,Radioactivity distribution Femur,[2]; 60 min after administration,0.77 ± 0.13 % ID/g
same,Radioactivity distribution Heart,[2]; 60 min after administration,0.26 ± 0.03 % ID/g
same,Radioactivity distribution Kidney,[2]; 60 min after administration,1.13 ± 0.17 % ID/g
same,Radioactivity distribution Large intestine,[2]; 60 min after administration,0.38 ± 0.22 % ID/g
same,Radioactivity distribution Liver,[2]; 60 min after administration,4.11 ± 0.66 % ID/g
same,Radioactivity distribution Lung,[2]; 60 min after administration,0.45 ± 0.05 % ID/g
same,Radioactivity distribution Muscle (lower limbs),[2]; 60 min after administration,0.09 ± 0.01 % ID/g
same,Radioactivity distribution Remaining whole body,[2]; 60 min after administration,0.18 ± 0.02 % ID/g
same,Radioactivity distribution Small intestine,[2]; 60 min after administration,2.85 ± 0.37 % ID/g
same,Radioactivity distribution Spleen,[2]; 60 min after administration,4.40 ± 1.15 % ID/g
same,Radioactivity distribution Stomach,[2]; 60 min after administration,1.02 ± 0.19 % ID/g
same,Radioactivity distribution Testis,[2]; 60 min after administration,0.08 ± 0.01 % ID/g
same,Radioactivity distribution Whole brain,[2]; 60 min after administration,0.02 ± 0.00 % ID/g
same,accumulation of radioactivity in adrenal gland section (autoradiogram),[3]; FIGS. 18 to 31,accumulation of radioactivity was selectively observed in a region in which aldosterone-producing adenoma had been pathologically observed
same,B2/B1 accumulation ratio,[3]; section of FIG. 17(a),5.08
same,"B2 (PSL value, aldosterone-producing adenoma)","[3]; section of FIG. 17(a), site 71a",16480
same,"B1 (PSL value, normal adrenal cortex)","[3]; section of FIG. 17(a), site 72a",3241
